In ChEMBL document CHEMBL1139899, “Alpha-phenyl-N-tert-butyl nitrone (PBN) derivatives: synthesis and protective action against microvascular damages induced by ischemia/reperfusion” (Bioorg Med Chem, 2007):

Legend:
[1] = Partition coefficient, log P of the compound; assay type: physicochemical; settings: octanol/water
Syrian golden hamster [2] = test: Protective effect against ischemia/reperfusion-induced microvascular damages in golden hamster assessed as number of leakage site per cm^2 at 3 mg/kg, po after 10 mins by cheek pouch assay; assay type: functional, Mesocricetus auratus
Syrian golden hamster [3] = test: Protective effect against ischemia/reperfusion-induced microvascular damages in golden hamster assessed as number of leakage site per cm^2 at 3 mg/kg, po after 15 mins by cheek pouch assay; assay type: functional, Mesocricetus auratus
Syrian golden hamster [4] = test: Protective effect against ischemia/reperfusion-induced microvascular damages in golden hamster assessed as number of leakage site per cm^2 at 10 mg/kg, po after 10 mins by cheek pouch assay; assay type: functional, Mesocricetus auratus
Syrian golden hamster [5] = test: Protective effect against ischemia/reperfusion-induced microvascular damages in golden hamster assessed as number of leakage site per cm^2 at 10 mg/kg, po after 15 mins by cheek pouch assay; assay type: functional, Mesocricetus auratus

| logP [1] | Compound | Activity (Syrian golden hamster [2]) [leakage sites/cm2] | Activity (Syrian golden hamster [3]) [leakage sites/cm2] | Activity (Syrian golden hamster [4]) [cm2] | Activity (Syrian golden hamster [5]) [cm2] |
| --- | --- | --- | --- | --- | --- |
| 1.5 | CC(C)(C)/[N+]([O-])=C/c1ccccc1 |  |  |  |  |
| 1.58 | COc1cc(/C=[N+](/[O-])C(C)(C)C)ccc1O | 108 | 85 |  |  |
| 1.39 | CC(C)(C)/[N+]([O-])=C\c1ccc([N+](=O)[O-])cc1 | 90 | 78 |  |  |
| 1.69 | CC(C)(C)/[N+]([O-])=C/c1cc2c(cc1Br)OCO2 | 118 | 109 |  |  |
| 1.73 | CN(C)c1ccc(/C=[N+](/[O-])C(C)(C)C)cc1 | 75 | 55 |  |  |
| 1.1 | CC(C)(C)/[N+]([O-])=C\c1ccco1 | 49 | 33 |  |  |
| 2.68 | COc1cc(/C=[N+](/[O-])C(C)(C)C)ccc1OCc1ccccc1 | 40 | 35 |  |  |
| 0.57 | CC(C)(C)/[N+]([O-])=C\c1ccc2c(c1)OCO2 | 44 | 38 |  |  |
|  | Cc1c(C)c2c(c(C)c1O)CC[C@@](C)(CCC[C@H](C)CCC[C@H](C)CCCC(C)C)O2 [ALPHA-TOCOPHEROL] |  |  | 50 | 45 |

| Compound | logP [1] | Activity (Syrian golden hamster [2]) [leakage sites/cm2] | Activity (Syrian golden hamster [3]) [leakage sites/cm2] | Activity (Syrian golden hamster [4]) [cm2] | Activity (Syrian golden hamster [5]) [cm2] |
| --- | --- | --- | --- | --- | --- |
| CC(C)(C)/[N+]([O-])=C\c1cccnc1 | 0.21 | 68 | 60 |  |  |
